The values below come from patent US11020398B2, “Amino-pyrrolopyrimidinone compounds and methods of use thereof” (ArQule, Inc., priority 2016, dated 2021).

Experiment [1] concerns the target full-length activated BTK mutant C481S (Homo sapiens (Human), UniProt Q06187, C481S). Description: AlphaScreen assay, BTK mutant C481S. In kind it is biochemical. The following applies: for inhibition at 10 µM: read-out: BTK-C481S % @ 10 uM, @ 10 uM. The procedure: (§1) The activated BTK was frozen in 50 μl aliquots (125-150 μg/ml).
(§2) BTK activity was assayed using a PLCγ2-derived biotinylated peptide substrate (biotin-[…]-OH) and AlphaScreen™ (Amplified Luminescent Proximity Homogeneous Assay) technology. The extent of peptide phosphorylation was determined by using acceptor beads conjugated to phosphotyrosine antibody that recognized the phosphorylated peptide and donor beads conjugated to streptavidin that binds to the biotin on the peptide. Excitation of the donor beads converted ambient oxygen to excited singlet oxygen which when in close proximity to acceptor beads, reacted with acceptor beads resulting in signal amplification.
(§3) Test inhibitors and controls were prepared in 10% DMSO at 10-fold the desired final concentration and added to each well of a reaction plate (Corning 96-well half-area solid white nonbinding surface plate) in a volume of 2.5 μl. […] The plate was incubated for 120 min at room temperature and the reaction stopped by the addition of 10 μl stop/detection mixture containing 35 mM EDTA, 50 ug/ml AlphaScreen™ Streptavidin Donor beads (final concentration is 500 ng/well) and AlphaScreen™ Phospho-tyrosine (P-Tyr-100) Acceptor beads (final concentration is 500 ng/well) under green light conditions. The plate was incubated overnight at room temperature in the dark and the plates read on the BMG PolarStar Omega ([…], Gain=4000). Data were archived and analyzed with a 4-parameter fit to generate IC50 values using the CDD Vault from Collaborative Drug Discovery.

Experiment [2] concerns the target full-length activated BTK (wildtype) (Homo sapiens (Human), UniProt Q06187). Description: AlphaScreen assay, wild-type BTK. In kind it is biochemical. The note with it: for inhibition at 10 µM: read-out: BTK % @ 10 uM, @ 10 uM. The procedure: as §1, §2, §3
For orientation: In Alpha technology, singlet oxygen from a donor bead excites a nearby acceptor bead.

Molecules are shown by their SMILES.

Sequence of full-length activated BTK (wildtype) (Q06187 whole entry): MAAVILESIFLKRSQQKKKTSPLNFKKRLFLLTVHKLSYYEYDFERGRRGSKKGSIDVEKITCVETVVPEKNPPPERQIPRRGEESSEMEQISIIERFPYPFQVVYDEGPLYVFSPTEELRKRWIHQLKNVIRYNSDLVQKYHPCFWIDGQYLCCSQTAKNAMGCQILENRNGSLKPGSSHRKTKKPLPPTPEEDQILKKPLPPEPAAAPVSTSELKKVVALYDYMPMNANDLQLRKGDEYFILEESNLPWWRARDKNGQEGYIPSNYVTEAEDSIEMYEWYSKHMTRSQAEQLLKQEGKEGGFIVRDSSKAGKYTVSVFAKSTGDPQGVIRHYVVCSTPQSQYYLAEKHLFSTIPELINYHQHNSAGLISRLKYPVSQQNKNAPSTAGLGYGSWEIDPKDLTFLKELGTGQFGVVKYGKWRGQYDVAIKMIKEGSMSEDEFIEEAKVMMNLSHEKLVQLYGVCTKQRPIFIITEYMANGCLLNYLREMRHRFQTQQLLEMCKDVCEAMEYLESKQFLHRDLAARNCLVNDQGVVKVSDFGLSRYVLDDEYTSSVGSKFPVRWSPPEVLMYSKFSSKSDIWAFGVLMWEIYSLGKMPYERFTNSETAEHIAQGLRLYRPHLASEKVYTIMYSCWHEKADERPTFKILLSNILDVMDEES
Sequence of full-length activated BTK mutant C481S (Q06187 whole entry C481S): as the sequence (Q06187 whole entry) above, with C481S counted along it

`COCCNC(=O)c1cccc(C(=O)c2c[nH]c3ncnc(N[C@@H]4CC[C@@H](CO)OC4)c23)c1` [Compound I-637, 3-(4-(((3R,6S)-6-(hydroxymethyl)tetrahydro-2H-pyran-3-yl)amino)-7H-pyrrolo[2,3-d]pyrimidine-5-carbonyl)-N-(2-methoxyethyl)benzamide]: the values for the inhibition at 10 µM in experiment [1] and in experiment [2] were 55% and 76%, respectively.

Turning to `COCCOc1ccc(C(=O)c2c[nH]c3ncnc(N[C@@H]4CC[C@@H](CO)OC4)c23)c(Cl)c1` [Compound I-317i, (2-chloro-4-(2-methoxyethoxy)phenyl)(4-(((3R,6S)-6-(hydroxymethyl)tetrahydro-2H-pyran-3-yl)amino)-7H-pyrrolo[2,3-d]pyrimidin-5-yl)methanone], the IC50 (commonly the concentration needed to halve the response being measured) in experiment [1] turned out to be 156 nM; in experiment [2], 40.7 nM.

In the case of `O=C(Nc1ccc(Cl)c(C(=O)c2c[nH]c3ncnc(N[C@@H]4CC[C@@H](CO)OC4)c23)c1)c1nccc2ccccc12` [Compound I-607, N-(4-chloro-3-(4-(((3R,6S)-6-(hydroxymethyl)tetrahydro-2H-pyran-3-yl)amino)-7H-pyrrolo[2,3-d]pyrimidine-5-carbonyl)phenyl)isoquinoline-1-carboxamide], the IC50 in experiment [1] came out at 216 nM; in experiment [2] it was 13.8 nM.

On to `CC#CC(=O)N1CCCC(Nc2ncnc3[nH]cc(C(=O)c4ccc(Oc5ccccc5)cc4Cl)c23)C1` (racemic) [Compound I-324r, (racemic)-1-(3-((5-(2-chloro-4-phenoxybenzoyl)-7H-pyrrolo[2,3-d]pyrimidin-4-yl)amino)piperidin-1-yl)but-2-yn-1-one], for which the 50% inhibitory concentration (IC50) in experiment [1] came out at 105 nM; in experiment [2], 17.2 nM.

On to `O=C(Nc1ccc(C(=O)c2c[nH]c3ncnc(N[C@@H]4CC[C@@H](CO)OC4)c23)c(Cl)c1)c1ccccc1` [Compound I-276, N-(3-chloro-4-(4-(((3R,6S)-6-(hydroxymethyl)tetrahydro-2H-pyran-3-yl)amino)-7H-pyrrolo[2,3-d]pyrimidine-5-carbonyl)phenyl)benzamide], for which the IC50 was determined as 58 nM in experiment [1] and 17.6 nM in experiment [2].

With `COCCOc1cccc(C(=O)c2c[nH]c3ncnc(N[C@@H]4CC[C@@H](CO)OC4)c23)c1` [Compound I-649, (4-(((3R,6S)-6-(hydroxymethyl)tetrahydro-2H-pyran-3-yl)amino)-7H-pyrrolo[2,3-d]pyrimidin-5-yl)(3-(2-methoxyethoxy)phenyl)methanone], the inhibition at 10 µM in experiment [1] is 82%. Also, in experiment [2], the IC50 was 959 nM.

Consider `O=C(c1ccc(Oc2ccccc2)cc1Cl)c1c[nH]c2ncnc(NC3CCC(CO)NC3)c12` (racemic) [Compound I-343r, rac-(2-chloro-4-phenoxyphenyl)(4-((6-(hydroxymethyl)piperidin-3-yl)amino)-7H-pyrrolo[2,3-d]pyrimidin-5-yl)methanone], for which the IC50 in experiment [1] was 34 nM; in experiment [2], 11 nM.

Take `CNC(=O)c1cccc(Oc2ccc(C(=O)c3c[nH]c4ncnc(N[C@@H]5CC[C@@H](CO)OC5)c34)cc2)n1` [Compound I-320, 6-(4-(4-(((3R,6S)-6-(hydroxymethyl)tetrahydro-2H-pyran-3-yl)amino)-7H-pyrrolo[2,3-d]pyrimidine-5-carbonyl)phenoxy)-N-methylpicolinamide]: the IC50 came to 63.1 nM in experiment [1] and 336 nM in experiment [2].

As to `COCCNC(=O)c1ccc(Cl)c(C(=O)c2c[nH]c3ncnc(N[C@@H]4CC[C@@H](CO)OC4)c23)c1` [Compound I-624, 4-chloro-3-(4-(((3R,6S)-6-(hydroxymethyl)tetrahydro-2H-pyran-3-yl)amino)-7H-pyrrolo[2,3-d]pyrimidine-5-carbonyl)-N-(2-methoxyethyl) benzamide], in experiment [1], the inhibition at 10 µM was 53%. Also, in experiment [2], inhibition was half-maximal at 1210 nM (IC50).

Turning to `O=C(c1ccc(C(=O)N2CCc3ccccc3C2)cc1Cl)c1c[nH]c2ncnc(N[C@@H]3CC[C@@H](CO)OC3)c12` [Compound I-615, (2-chloro-4-(1,2,3,4-tetrahydroisoquinoline-2-carbonyl)phenyl)(4-(((3R,6S)-6-(hydroxymethyl)tetrahydro-2H-pyran-3-yl)amino)-7H-pyrrolo[2,3-d]pyrimidin-5-yl)methanone], the IC50 in experiment [1] is 34.1 nM; in experiment [2], 86.4 nM.

As to `O=C(c1ccc(C(=O)N2CCCCC2)cc1Cl)c1c[nH]c2ncnc(N[C@@H]3CC[C@@H](CO)OC3)c12` [Compound I-617, (3-chloro-4-(4-(((3R,6S)-6-(hydroxymethyl)tetrahydro-2H-pyran-3-yl)amino)-7H-pyrrolo[2,3-d]pyrimidine-5-carbonyl)phenyl)(piperidin-1-yl)methanone], the figures for the IC50 in experiment [1] and in experiment [2] were 48.7 nM and 16.2 nM, respectively.

Turning to `O=C(c1ccc(C(=O)N2CCOCC2)cc1)c1c[nH]c2ncnc(N[C@@H]3CC[C@@H](CO)OC3)c12` [Compound I-632, (4-(((3R,6S)-6-(hydroxymethyl)tetrahydro-2H-pyran-3-yl)amino)-7H-pyrrolo[2,3-d]pyrimidin-5-yl)(4-(morpholine-4-carbonyl)phenyl) methanone], the figures for the inhibition at 10 µM in experiment [1] and in experiment [2] were 66% and 84%, respectively.

As to `Cn1cc(NC(=O)c2ccc(C(=O)c3c[nH]c4ncnc(N[C@@H]5CC[C@@H](CO)OC5)c34)c(Cl)c2)cn1` [Compound I-619, 3-chloro-4-(4-(((3R,6S)-6-(hydroxymethyl)tetrahydro-2H-pyran-3-yl)amino)-7H-pyrrolo[2,3-d]pyrimidine-5-carbonyl)-N-(1-methyl-1H-pyrazol-4-yl)benzamide], the IC50 in experiment [1] came out at 942 nM; in experiment [2], 376 nM.

Turning to `O=C(c1cccc(C(=O)N2CCOCC2)c1)c1c[nH]c2ncnc(N[C@@H]3CC[C@@H](CO)OC3)c12` [Compound I-635, (4-(((3R,6S)-6-(hydroxymethyl)tetrahydro-2H-pyran-3-yl)amino)-7H-pyrrolo[2,3-d]pyrimidin-5-yl)(3-(morpholine-4-carbonyl)phenyl) methanone], the inhibition at 10 µM in experiment [1] turned out to be 49%; in experiment [2], 73%.

`O=C(c1ccc(N2CC3(COC3)C2)cc1Cl)c1c[nH]c2ncnc(N[C@@H]3CC[C@@H](CO)OC3)c12` [Compound I-647, (2-chloro-4-(2-oxa-6-azaspiro[3.3]heptan-6-yl)phenyl)(4-(((3R,6S)-6-(hydroxymethyl)tetrahydro-2H-pyran-3-yl)amino)-7H-pyrrolo[2,3-d]pyrimidin-5-yl)methanone]: the IC50 in experiment [1] worked out at 108 nM; in experiment [2], 1440 nM.

Take `O=C(Nc1cccnc1)c1ccc(C(=O)c2c[nH]c3ncnc(N[C@@H]4CC[C@@H](CO)OC4)c23)c(Cl)c1` [Compound I-256, 3-chloro-4-(4-(((3R,6S)-6-(hydroxymethyl)tetrahydro-2H-pyran-3-yl)amino)-7H-pyrrolo[2,3-d]pyrimidine-5-carbonyl)-N-(pyridin-3-yl)benzamide]: the concentration for half-maximal inhibition (IC50) in experiment [1] turned out to be 317 nM; in experiment [2] it was 156 nM.

For the compound `COCCNC(=O)c1ccc(C(=O)c2c[nH]c3ncnc(N[C@@H]4CC[C@@H](CO)OC4)c23)c(Cl)c1` [Compound I-610, 3-chloro-4-(4-(((3R,6S)-6-(hydroxymethyl)tetrahydro-2H-pyran-3-yl)amino)-7H-pyrrolo[2,3-d]pyrimidine-5-carbonyl)-N-(2-methoxyethyl) benzamide], the IC50 in experiment [1] came out at 1150 nM; in experiment [2] it was 491 nM.
